Target: acetylcholine esterase AChE (Homo sapiens, UniProt P22303)
Assay: biochemical
Format: biochemical
Conditions: Ellman's method; for IC50: AChEI activity
Experimental: Acetylcholine esterase inhibitory activity of isolated compounds and their synthesized silver nanoparticles were assessed using Ellman’s method as previously prescribed.
Acetylcholine esterase inhibitory (AChEI) activity was assessed by using Ellman’s method.

Sequence of acetylcholine esterase AChE (P22303 32-614): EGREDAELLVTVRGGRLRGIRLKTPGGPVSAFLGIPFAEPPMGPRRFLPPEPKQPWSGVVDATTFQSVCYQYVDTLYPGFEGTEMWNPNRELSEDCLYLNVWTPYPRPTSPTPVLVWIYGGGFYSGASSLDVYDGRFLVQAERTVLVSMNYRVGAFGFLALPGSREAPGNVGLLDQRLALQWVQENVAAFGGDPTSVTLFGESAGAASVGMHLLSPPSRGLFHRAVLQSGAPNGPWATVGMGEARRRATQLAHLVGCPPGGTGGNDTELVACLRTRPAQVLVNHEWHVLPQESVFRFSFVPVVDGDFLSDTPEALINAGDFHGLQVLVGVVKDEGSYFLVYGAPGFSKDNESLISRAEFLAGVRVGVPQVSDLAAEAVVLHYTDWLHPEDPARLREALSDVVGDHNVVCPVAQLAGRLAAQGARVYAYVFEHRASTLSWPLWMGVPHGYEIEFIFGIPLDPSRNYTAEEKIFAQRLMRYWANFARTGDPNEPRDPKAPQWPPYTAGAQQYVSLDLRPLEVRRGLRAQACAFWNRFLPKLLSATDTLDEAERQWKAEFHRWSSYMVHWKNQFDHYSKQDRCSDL

SMILES	IC50 [µM]	AChE inhibitory activity (in words)
NC(=O)c1c[nH]c(Cc2ccccc2)cc1=O [Asperginin A (7), Aspernigrin A]	20.2 ± 3.03	
COc1cc(OC)c2c(O)c3c(=O)cc(C)oc3c(-c3c(OC)cc4cc5oc(C)cc(=O)c5c(O)c4c3OC)c2c1 [Aurasperone A (3), Aurasperone A]	4.9 ± 2.16	
COc1cc(OC)c2c(c1)cc(O)c1c(=O)cc(C)oc12 [Flavasperone (1), Flavasperone]	> 25	didn’t show any inhibitory activity
COc1cc(OC)c2c(O)c3c(=O)cc(C)oc3c(-c3c(OC)cc4cc(O)c5c(=O)cc(C)oc5c4c3OC)c2c1 [Fonsecinone A (4), Fonsecinone A]	7.52 ± 2.16	
COc1cc(OC)c2c(O)c3c(=O)cc(C)oc3cc2c1 [Rubrofusarin B (2), Rubrofusarin B]	13.9 ± 2.16	moderate inhibitory activity
